Experimental data published in US20070249695A1, “Preventive and/or Therapeutic Agents for Meniere's Disease” (priority 2004, published 2007).

Experiments:
Meniere's disease = conditions: existing drug (diuretic drug); cited from earlier work
[1] = tested on: patients suffering from acute low-tone sensorineural hearing loss; assay: clinical test in patients with acute low-tone sensorineural hearing loss (Example 2); assay type: in vivo; conditions: for Hearing in the sound ear 500 Hz: before administration 10 dB; for Hearing in the sound ear 250 Hz: before administration 15 dB; for Hearing in the sound ear Average hearing level: before administration 17 dB; for Hearing in the sound ear 125 Hz: before administration 25 dB; for Hearing in the affected ear 500 Hz: before administration 35 dB; for Hearing in the affected ear 125 Hz: before administration 40 dB; for Hearing in the affected ear Average hearing level: before administration 42 dB; for Hearing in the affected ear 250 Hz: before administration 50 dB
Procedure: Pranlukast hydrate (trade name: Onon capsule) was administered to the patients suffering from acute low-tone sensorineural hearing loss concurrently with a feeling of fullness in the left ear at a daily dose of 450 mg (two capsules each containing 112. 5 mg given individually after breakfast and dinner) for two months to investigate into the efficacy against hearing impairment, the major complaint. In connection to the above test, it is to be noted that selection of patients was performed in accordance with a draft of the Criteria for Diagnosis proposed by Study Group for Acute Severe Hearing Loss of the Ministry of Health, Labor and Welfare of Japan (refer to Audiology Japan., 45, 161-166 (2002)).

[2] = tested on: patients afflicted with Meniere's disease; assay: clinical pharmacological test in patients afflicted with Meniere's disease (Example 1); assay type: in vivo; conditions: 450 mg daily
Procedure: Pranlukast hydrate (trade name: onon capsule) was administered to 19 patients afflicted with Meniere's disease at a daily dose of 450 mg (two capsules each containing 112.5 mg individually after breakfast and after dinner) for the period of not less than three weeks (up to 24 weeks max.) to test and determine the efficacy. The overall efficacy (therapeutic) assessment was performed mainly on the basis of the results of nystagmus and hearing tests, while also taking into consideration the subjective symptoms (rotary vertigo, tinnitus, a feeling of fullness in ear, hearing rimpairment, etc.) and the extent or degree of hearing impairment (average hearing, method of quartering). In consequence of this, the efficacy was recognized and determined in 17(89.5%) out of 19 patients afflicted with Meniere's disease.

mice = assay: acute toxicity, minimum lethal dose; assay type: in vivo; conditions: male and female, orally or subcutaneously
rats = assay: acute toxicity, minimum lethal dose; assay type: in vivo; conditions: male and female, orally or subcutaneously

## O[C@@H]1CO[C@H]2[C@@H]1OC[C@@H]2O [isosorbide]
Meniere's disease
  efficacy against hearing impairment, tinnitus and a feeling of fullness in the ear: hardly been found to exhibit the efficacy

## O=C(Nc1cccc2c(=O)cc(-c3nnn[nH]3)oc12)c1ccc(OCCCCc2ccccc2)cc1 [pranlukast hydrate, 4-oxo-8-[4-(4-phenylbutoxy)benzoylamino]-2-(tetrazol-5-yl)-4H-1-benzopyran ½ hydrate]
[1]; 450 mg daily, after one month of administration, affected ear
  average hearing level recovered: 19 dB
[1]; 450 mg daily, after two months of administration
  efficacy evaluation (healed/ameliorated/unchanged/worsened): healing
[1]; 450 mg daily, within one week of administration
  effect on subjective symptoms and hearing: tendency of amelioration
[1]; after one month
  Hearing in the sound ear 500 Hz: 15 dB
  Hearing in the sound ear 250 Hz: 15 dB
  Hearing in the sound ear Average hearing level: 18 dB
  Hearing in the sound ear 125 Hz: 25 dB
  Hearing in the affected ear 500 Hz: 15 dB
  Hearing in the affected ear 125 Hz: 30 dB
  Hearing in the affected ear Average hearing level: 23 dB
  Hearing in the affected ear 250 Hz: 25 dB
[1]; after two months
  Hearing in the sound ear 500 Hz: 10 dB
  Hearing in the sound ear 250 Hz: 15 dB
  Hearing in the sound ear Average hearing level: 17 dB
  Hearing in the sound ear 125 Hz: 25 dB
  Hearing in the affected ear 500 Hz: 10 dB
  Hearing in the affected ear 125 Hz: 25 dB
  Hearing in the affected ear Average hearing level: 18 dB
  Hearing in the affected ear 250 Hz: 20 dB
[2]; oral, not less than three weeks (up to 24 weeks), 17 out of 19 patients
  overall efficacy, patients in whom efficacy was recognized: 89.5%
[2]; 6 out of 6 patients
  effective rate in patients suffering from vertigo (rotary vertigo or stagger): 100%
[2]; 15 out of 19 patients
  efficacy in patients complaining of the subjective symptoms: 78.9%
  efficacy in patients suffering from hearing impairment: 78.9%
mice
  minimum lethal dose: not less than 2000 mg/kg
rats
  minimum lethal dose: not less than 2000 mg/kg
